“Also recorded” adds a separate entry of the source. Where two headings read alike, the source gives them in different places.
Legend:
[1] = test system: PAF-induced aggregation in washed rabbit platelets (WRPs); settings: cited from earlier work
[2] = test system: thrombin-induced aggregation in washed rabbit platelets (WRPs); settings: cited from earlier work
[3] = test system: thrombin-induced aggregation in washed rabbit platelets (WRPs); experiment: Inhibition of thrombin-induced aggregation in washed rabbit platelets; type: cell-based; settings: washed rabbit platelets, mean ± SD; for IC50: read-out: IC50 (μM) towards Thrombin in WRPs
Protocol: (§1) The biological experiments of PAF-induced platelet aggregation as well as the evaluation of the inhibitory effect of its synthetic compounds were performed according to thoroughly described protocols. The inhibitory effect of the starting materials (pqx = 2-(2′-pyridyl)quinoxaline, CrCl3 × 3H2O, MnCl2 × 4H2O, FeCl2 × 4H2O, CoCl2 × 6H2O, NiCl2 × 6H2O, CuCl2 × 2H2O, ZnCl2) and of the coordination compounds 1–7, towards PAF and thrombin related biological activities (aggregation experiments) in washed rabbit platelets (WRPs) was carried out according to previously described protocols. Briefly, in order to obtain the washed rabbit platelets (WRPs), platelet-rich plasma was washed on Ficoll–Paque cushions and adjusted to […] platelets/mL of Tyrode’s buffer, pH 7.2. The dilution of PAF was prepared using pyrogen-free 0.15 M NaCl containing 2.5 mg/mL of crystallized bovine serum albumin, required for dispersion of PAF. The compounds under investigation were firstly dissolved in the appropriate solvent that is: DMSO for pqx (0.010 M), H2O for CrCl3 × 3H2O (0.016 M), H2O for MnCl2 × 4H2O (0.004 M), DMSO-EtOH (4/1, v/v)) for FeCl2 × 4H2O (0.014 M), H2O for CoCl2 × 6H2O (0.010 M), H2O for NiCl2 × 6H2O (0.010 M), H2O for CuCl2 × 2H2O (0.008 M), H2O for ZnCl2 (0.013 M), DMSO for 1 (0.017 M), DMSO for 2 (0.010 M0, DMSO for 3 (0.004 M), DMSO for 4 (0.002 M), DMSO for 5 (0.003 M), DMSO-EtOH-H2O (25/1/1, v/v)) for 6 (0.006 M), DMSO for 7 (0.002 M) and aliquots of these solutions were then added in solutions (2.5 mg BSA/mL) of saline.
The experiment on the inhibitory effect of each compound of interest against the washed rabbit platelets (WRPs) aggregation was carried out as per the already described method. The platelets were from male New Zealand white rabbits (about 20), individually housed in stainless steel cages in an air-conditioned room (19 ± 1 °C, 55 ± 5% humidity on a 12/12 h artificial light/dark cycle). Blood samples were drawn from the main ear artery. Microliters of PAF in a final concentration of about 10^–10 M were added to the cuvette of the aggregometer, and the height of the platelet aggregation was monitored. The platelet aggregation induced by PAF, or thrombin was measured before (considered as 0% inhibition) and after the addition of various concentrations of the examined sample, creating a linear curve of percentage inhibition (ranging from 0 to 100%) versus different concentrations of the sample. From this curve, the concentration of the sample that inhibited 50% PAF-induced aggregation was calculated, and this value was defined as IC50 (Inhibitory concentration for 50% Inhibition). Dithiothreitol-insensitive PAF choline phosphotransferase, lyso-PAF:acetyl-CoA acetyltransferase and PAF-acetylhydrolase activity assays were performed on the homogenates of rabbit leukocytes while the activity of lipoprotein-associated phospholipase A2 was assessed on plasma as previously described. The experiments were performed in a model 400 vs. aggregometer of Chrono-Log (Havertown, PA, USA) coupled to a Chrono-Log recorder at 37 °C with constant stirring at 1200 rpm. The separation of platelets was performed with centrifugations in a 3L-R Heraeus Labofuge (Hvanau, Germany), a 400R Heraeus Labofuge and an RC-5B Sorvall (Newtown, CT, USA) refrigerated super speed centrifuge. Bovine serum albumin (BSA), PAF and analytical solvents for the biological assays were purchased from Sigma. Standard active thrombin was purchased from Sigma, St. Lewis, MO, USA. The measurements were performed in duplicates for each sample concentration in three different WRP preparations, in order to ensure reproducibility. All experiments were also followed by appropriate control tests of the solvent used (saline solution of BSA, DMSO aliquots in a saline solution of BSA-2.5 mg BSA/mL saline- or just in saline), in WRPs. […]

[4] = test system: PAF-induced aggregation in washed rabbit platelets (WRPs); experiment: Inhibition of PAF-induced aggregation in washed rabbit platelets; type: cell-based; settings: washed rabbit platelets; mean ± SD; read-out: IC50 (μM) towards PAF in WRPs
Protocol: as §1, with “The inhibitory effect of the starting materials (pqx = 2-(2′-pyridyl)quinoxaline, CrCl3 × 3H2O, MnCl2 × 4H2O, FeCl2 × 4H2O, CoCl2 × 6H2O, NiCl2 × 6H2O, CuCl2 × 2H2O, ZnCl2) and of the coordination compounds 1–7, towards PAF and thrombin related biological activities (aggregation experiments) in washed rabbit platelets (WRPs) was carried out according to previously described protocols.” left out
The experiment on the inhibitory effect of each compound of interest against the washed rabbit platelets (WRPs) aggregation was carried out as per the already described method. The platelets were from male New Zealand white rabbits (about 20), individually housed in stainless steel cages in an air-conditioned room (19 ± 1 °C, 55 ± 5% humidity on a 12/12 h artificial light/dark cycle). Blood samples were drawn from the main ear artery. Microliters of PAF in a final concentration of about 10^–10 M were added to the cuvette of the aggregometer, and the height of the platelet aggregation was monitored. The platelet aggregation induced by PAF, or thrombin was measured before (considered as 0% inhibition) and after the addition of various concentrations of the examined sample, creating a linear curve of percentage inhibition (ranging from 0 to 100%) versus different concentrations of the sample. From this curve, the concentration of the sample that inhibited 50% PAF-induced aggregation was calculated, and this value was defined as IC50 (Inhibitory concentration for 50% Inhibition). Dithiothreitol-insensitive PAF choline phosphotransferase, lyso-PAF:acetyl-CoA acetyltransferase and PAF-acetylhydrolase activity assays were performed on the homogenates of rabbit leukocytes while the activity of lipoprotein-associated phospholipase A2 was assessed on plasma as previously described. The experiments were performed in a model 400 vs. aggregometer of Chrono-Log (Havertown, PA, USA) coupled to a Chrono-Log recorder at 37 °C with constant stirring at 1200 rpm. The separation of platelets was performed with centrifugations in a 3L-R Heraeus Labofuge (Hvanau, Germany), a 400R Heraeus Labofuge and an RC-5B Sorvall (Newtown, CT, USA) refrigerated super speed centrifuge. Bovine serum albumin (BSA), PAF and analytical solvents for the biological assays were purchased from Sigma. […] The measurements were performed in duplicates for each sample concentration in three different WRP preparations, in order to ensure reproducibility. All experiments were also followed by appropriate control tests of the solvent used (saline solution of BSA, DMSO aliquots in a saline solution of BSA-2.5 mg BSA/mL saline- or just in saline), in WRPs. In the aggregometer cuvette (250 to 500 μL) the overall amount of added DMSO, contained in the solution of the sample under study, is not higher than 2–3 μL. All results were expressed as mean ± standard deviation (SD). The t-test was employed to assess differences among the IC50 values of each metal complex against either the PAF- or thrombin-induced aggregation. Differences were statistically significant when the statistical p-value was smaller than 0.05.

[5] = test system: HeLa cells (cervical cancer cells); experiment: MTT cell viability assay, HeLa; type: cell-based, human; settings: 48 h exposure, mean ± SD
Protocol: (§2) In this report, cell viability tests were conducted in HEK293T and HeLa cancer cells by means of the colorimetric 3-(4,5-dimethylthiazol-2-yl)-2,5-diphenyl tetrazolium bromide (MTT) assay after exposure for 48 h. A HeLa cancer cell line was selected since it is widely used in cytotoxicity studies. For all complexes, a 10 mM stock solution in DMSO (H2O for cisplatin) was prepared and diluted appropriately to reach the final concentration reported in the Materials and Methods. The non-cancerous HEK293T cell line was used for comparison. The IC50 values of the first-row metal complexes, the pqx ligand and cisplatin, presented herein were calculated using a dose-response model, which was obtained from sigmoidal fitting of dose-response curves.
(§3) The HEK293T cell line (immortalized human embryonic kidney cells) was obtained from the Biomedical Research Foundation Academy of Athens (BRFAA), Athens, Greece and the HeLa cell line (cervical cancer cells) was obtained from the National Centre For Scientific Research Demokritos (NCSR Demokritos), Athens, Greece.
(§4) Pqx metal complexes were diluted in stock solutions of 10 mM in dimethyl sulfoxide (DMSO). A similar concentration of cisplatin dissolved in H2O was used. HEK293T and HeLa cells were cultured in Dulbecco’s modified Eagle’s medium (DMEM) with high glucose (Biosera, Nuaille, France) supplemented with 10% fetal bovine serum at 37 °C and 5% CO2. Cells were seeded in sterile tissue culture 96-well plates (SPL Life Science, Pochon, Republic of Korea) at a density of 3000 cells per well. After 24 h, the medium was removed and replaced with fresh media containing various concentrations (0.01 μΜ, 0.1 μΜ, 1 μΜ, 10 μΜ, 25 μΜ, 40 μΜ, 55 μΜ, 70 μΜ, 85 μΜ and 100 μΜ) of the compounds to be tested and was further incubated for 48 h at 37 °C. Dimethyl sulfoxide (DMSO) was used as a vehicle at ≤1%. To measure cytotoxicity, a culture medium containing the compounds (or DMSO) was removed, and 100 μL of 0.5 mg/mL MTT reagent (Applichem, Darmstadt, Germany) diluted in DMEM was added to the cells for 3 h at 37 °C. After 3 h incubation in identical conditions, MTT was removed and 200 μL of DMSO was added. Absorbance values of formazan were measured at 540 nm using a BioTek Synergy H1 microplate reader (Agilent, Santa Clara, CA, USA). All compounds were tested in triplicate. The results were statistically analyzed using the nonlinear regression by GraphPad PRISM (Version 9).

[6] = test system: HEK293T (human embryonic kidney cells); experiment: MTT cell viability assay, HEK293T; type: cell-based; settings: 48 h exposure, mean ± SD
Protocol: as §2, §3, §4

[7] = known PAF antagonists quoted for comparison, read-out: IC50 against the PAF-induced aggregation in WRPs
[8] = earlier pqx complexes, ref [17],[25], read-out: IC50 against the PAF-induced aggregation

Cc1cncc(CN2CCC(=C3c4ccc(Cl)cc4CCc4cccnc43)CC2)c1 [rupatadine]
IC50 [1, 7]: 0.25 µM

cis-[Ru(bpy)2(dcbpyH2)](PF6)2
IC50 ([2]; Ru(II) thrombin inhibitors, ref [30], read-out: IC50 against thrombin): 4.5 µM

[Ru(dcbpyH2)2 (pqx))](NO3)2
activity against thrombin ([2]; known Ru(II)-pqx complex, ref [17]): inactive | IC50 [1, 8]: 0.18 µM

[Cl][Mn][Cl] [MnCl2 × 4H2O, reference compound]
IC50 [3]: 466 ± 47 µM | IC50 [4]: 302 ± 30 µM

C[C@@H]1C(=O)O[C@H]2C[C@@]34[C@H]5C[C@@H](C(C)(C)C)[C@]36[C@@H](OC(=O)[C@@H]6O)O[C@@]4(C(=O)O5)[C@]21O [BN 52020]
IC50 [1, 7]: 3.6 µM

mer-[Rh(pqx)Cl3(MeOH)]
IC50 [1, 8]: 0.125 µM

O.O.O.O.O.O.[Cl-].[Cl-].[Co+2] [CoCl2 × 6H2O]
IC50 (μM) towards Thrombin in WRPs [3]: no inhibition | IC50 (μM) towards PAF in WRPs ([1]; washed rabbit platelets, ref [60]): negligible effects; also recorded: no inhibition ^1

[Cl][Ni][Cl] [NiCl2 × 6H2O, reference compound]
IC50 [3]: 4.9 ± 0.44 µM | IC50 [4]: 30 ± 2.7 µM

[Cl][Fe][Cl] [FeCl2 × 4H2O, reference compound]
IC50 [3]: 13.8 ± 1.93 µM | IC50 [4]: 261 ± 37 µM

[Rh(cod)(pqx)]Cl
IC50 [1, 8]: 0.015 µM

CC1C(=O)OC2C(O)C34C5CC(C(C)(C)C)C36C(OC(=O)C6O)OC4(C(=O)O5)C12O (stereo not shown) [BN 52021]
IC50 [1, 7]: 9.7 µM

[Cl-].[Cl-].[Zn+2] [ZnCl2, reference compound]
IC50 [3]: 41.4 ± 3.7 µM | IC50 [4]: 30 ± 3 µM

N.N.[Cl][Pt][Cl] [cisplatin, reference compound]
IC50 [5]: 12.8 ± 1.48 µM | IC50 ([1]; ref [25], read-out: IC50 against PAF): 0.55 µM | IC50 [6]: 4.44 ± 1.29 µM

[Cl][Cu][Cl] [CuCl2 × 2H2O, reference compound]
IC50 [3]: 3.23 ± 0.39 µM | IC50 [4]: 22 ± 3 µM

[Cl][Cr]([Cl])[Cl] [CrCl3 × 6H2O, reference compound]
IC50 [3]: 611 ± 67 µM | IC50 [4]: 537 ± 59 µM
